System: human myeloma cell line MM.1S
Experiment: SILAC acetylated-lysine peptide profiling, HDAC inhibitor vs DMSO (light/heavy ratio)
Type: cell-based
From the text: An embodiment of the invention comprises utilizing the SILAC method in order to quantitate changes in protein expression between two or more populations of cells. The SILAC method is a technique based on mass spectrometry that detects differences in protein abundance among samples using non-radioactive isotopic labeling. The SILAC method is known in the art, and described in detail in Ong et al., “Stable Isotope Labeling by Amino Acids in Cell Culture, SILAC, as a Simple and Accurate Approach to Expression Proteomics”, Molecular & Cellular Proteomics, vol. 1, pp. 376-386 (2002), which is incorporated herein by reference in its entirety.
Briefly, the SILAC method involves growing two populations of cells in cell culture. The first population of cells is grown in growth media containing normal amino acids (“normal media”). The second population of cells is grown in media lacking a standard essential amino acid (such as lysine), but is then supplemented with a non-radioactive, isotopically labeled form of that essential amino acid (such as lysine labeled with ^13C atoms, rather than normal ^12C atoms), which is called “heavy media”. When the two populations of cells are each growing in the medium, they incorporate the amino acids into all of their proteins. The growth of cells maintained in the heavy media is no different from that in normal media. All peptides containing the heavy amino acids are heavier than their normal counterparts. The cells from each of the two populations of cells are lysed. The lysates from each of the two cell populations are then combined. The combined cell lysates are then analyzed by mass spectrometry. Pairs of chemically identical peptides of different stable isotope composition can be differentiated in a mass spectrometer due to their difference in mass. The ratio of peak intensities in the mass spectrum for such peptide pairs reflects the abundance ratio for the two proteins.
This example describes SILAC studies that were performed to compare the effects of three different HDAC inhibitors (Compound A, Compound B, and tubastatin A) to a control on a human multiple myeloma cell line. The HDAC inhibitors were also compared amongst themselves to determine differences in their effects.
A human myeloma cell line MM.1S was grown using either ^12C (light) or ^13C (heavy) lysine containing culture medium. The “heavy” cells were treated with DMSO as the control, and the “light” cells were treated with a single HDAC inhibitor at 37° C. for 6 hours. The heavy and light cells were lysed, and the lysates were mixed in 1:1 ratio and digested with the protease trypsin. The acetylated lysine containing peptides (due to the action of the HDAC inhibitor) in the digested peptide pool were captured by a non-specific anti-acetylated lysine antibody cocktail (the antibodies identify both light and heavy acetylated peptides), and subjected to mass spectrometry analysis in order to identify thousands of individual peptides.
Thousands of peptides were identified in pairs (^12C and ^13C) due to their known mass differences. The amino acid sequence and quantitative ratio (Light/Heavy) of a given peptide in two differentially treated cell lysates were then determined and annotated with their possible protein (gene) sources.
As stated above, three HDAC inhibitors (Compound A, Compound B, and Tubastatin A) were used. Thus, the SILAC method was performed three times, with a different HDAC inhibitor compared to a control each time. Accordingly, there are three pairs of quantitative data in the table below, i.e., Compound A:DMSO, Compound B:DMSO, and Tubastatin A:DMSO. A cut-off of 1.30 fold of change (increase or decrease) was then used to determine “changed” or “+” in the table, and any peptides with a fold of change less than 1.3 fold were determined to be “unchanged” or “0” in the table. Those peptides that were not identified were marked as “NA” in the table. […]

## CN1CCc2c(c3ccccc3n2Cc2ccc(C(=O)NO)cc2)C1 [Tub A]
D-beta-hydroxybutyrate dehydrogenase mitochondrial [280], gene BDH1, inhibitor:DMSO
  light to heavy ratio (L/H ratio) of acetylated peptide YFDEK(ac)IAK (SEQ ID NO: 563): 0.00 log 2
DAAGSGDK(ac)PGADTGR (SEQ ID NO: 185), 39S ribosomal protein L53 mitochondrial [105], MRPL53
  light to heavy ratio (L/H ratio) of acetylated peptide, log 2 scale: 0.38
DAISGIGTDEK(ac)CLIEILASR (SEQ ID NO: 128), Annexin A6 [113], ANXA6
  light to heavy ratio (L/H ratio) of acetylated peptide, log 2 scale: 0.67
DAZAP1 [59], log 2 scale, drug vs DMSO
  L/H ratio of acetylated peptide FK(ac)DPNCVGTVLASR (SEQ ID NO: 30): −0.51
DCDHADEQK(ac)CYSCGEFGHIQK (SEQ ID NO: 145), Isoform 1 of Cellular nucleic acid-binding protein [118], CNBP
  light to heavy ratio (L/H ratio) of acetylated peptide, log 2 scale: −0.38
DDOST [189], log 2 scale, drug vs DMSO
  L/H ratio of acetylated peptide APTIVGK(ac)SSLNPILFR (SEQ ID NO: 31): −0.51
DDX5 [40], log 2 scale, drug vs DMSO
  L/H ratio of acetylated peptide FGNPGEK(ac)LVK (SEQ ID NO: 34): 0.45
DDX5 [388], log 2 scale, drug vs DMSO
  L/H ratio of acetylated peptide DWVLNEFK(ac)HGK (SEQ ID NO: 33): −0.41
DDX17 [132], log 2 scale, drug vs DMSO
  L/H ratio of acetylated peptide FEK(ac)NFYVEHPEVAR (SEQ ID NO: 32): −0.42
DELGDYLK(ac)PK (SEQ ID NO: 184), 39S ribosomal protein L46 mitochondrial [265], MRPL46
  light to heavy ratio (L/H ratio) of acetylated peptide, log 2 scale: −0.96
DHPLPEVAHVK(ac)HLSASQK (SEQ ID NO: 381), Cytochrome c oxidase subunit 4 isoform 1 mitochondrial [53], COX4I1
  L/H ratio of acetylated peptide: 0.00 log 2
DK(ac)TQYIFNNMVLK (SEQ ID NO: 182), Alpha-mannosidase 2 [191], MAN2A1
  light to heavy ratio (L/H ratio) of acetylated peptide, log 2 scale: −0.45
DLAT [466], log 2 scale, drug vs DMSO
  L/H ratio of acetylated peptide ELNK(ac)ILEGR (SEQ ID NO: 2): 0.45
DLEK(ac)WQNNLLPSR (SEQ ID NO: 211), 40S ribosomal protein 515a [88], RPS15A
  light to heavy ratio (L/H ratio) of acetylated peptide, log 2 scale: −0.46
DLMTDLK(ac)SEISGDLAR (SEQ ID NO: 129), Annexin A6 [418], ANXA6
  light to heavy ratio (L/H ratio) of acetylated peptide, log 2 scale: 0.42
DNAJB11 [247], log 2 scale, drug vs DMSO
  L/H ratio of acetylated peptide VVK(ac)HPIFER (SEQ ID NO: 35): −0.91
DSGNK(ac)PPGLLPR (SEQ ID NO: 160), Isoform 1 of Glutathione S-transferase kappa 1 [54], GSTK1
  light to heavy ratio (L/H ratio) of acetylated peptide, log 2 scale: 0.47
DVK(ac)FGADAR (SEQ ID NO: 173), 60 kDa heat shock protein mitochondrial [31], HSPD1
  light to heavy ratio (L/H ratio) of acetylated peptide, log 2 scale: −0.66
DYNC1H1 [4283], log 2 scale, drug vs DMSO
  L/H ratio of acetylated peptide SFDSEFK(ac)LACK (SEQ ID NO: 8): 0.44
Dihydrolipoyl dehydrogenase mitochondrial [122], gene DLD, inhibitor:DMSO
  light to heavy ratio (L/H ratio) of acetylated peptide LNLDK(ac)MMEQK (SEQ ID NO: 603): 0.00 log 2
Dolichyl-diphosphooligosaccharide--protein glycosyltransferase subunit 1 precursor [626], RPN1, drug:DMSO
  light to heavy ratio (L/H ratio) of acetylated peptide DTYIENEK(ac)LISGK (SEQ ID NO: 352): 0.00 log 2
Dynein light chain 1 cytoplasmic [36], gene DYNLL1, inhibitor:DMSO
  light to heavy ratio (L/H ratio) of acetylated peptide YNIEK(ac)DIAAHIK (SEQ ID NO: 553): 0.00 log 2
Dynein light chain 2 cytoplasmic [36], DYNLL2, drug:DMSO
  light to heavy ratio (L/H ratio) of acetylated peptide YNIEK(ac)DIAAYIK (SEQ ID NO: 331): 0.00 log 2
EAALEPSMEK(ac)IFK (SEQ ID NO: 157), cDNA FLJ59630 highly similar to Growth hormone-inducible transmembrane protein [76], GHITM
  light to heavy ratio (L/H ratio) of acetylated peptide, log 2 scale: −0.68
EDQK(ac)PVMDDQR (SEQ ID NO: 141), Isoform 1 of HLA class I histocompatibility antigen gamma chain [14], CD74
  light to heavy ratio (L/H ratio) of acetylated peptide, log 2 scale: −0.79
EP300 [1558:1560], log 2 scale, drug vs DMSO
  L/H ratio of acetylated peptide TSK(ac)NK(ac)SSLSR (SEQ ID NO: 14): 0.42
EQEHMINWVEK(ac)HVVQSISTQQEK (SEQ ID NO: 132), ATP synthase subunit b mitochondrial [221], ATP5F1
  light to heavy ratio (L/H ratio) of acetylated peptide, log 2 scale: 0.77
EVHK(ac)QVVESAYEVIK (SEQ ID NO: 181), Isoform 1 of L-lactate dehydrogenase A chain [232], LDHA
  light to heavy ratio (L/H ratio) of acetylated peptide, log 2 scale: −0.67
EVQTNDLK(ac)EVVNK (SEQ ID NO: 223), 40S ribosomal protein S3a [182], SNORD73A, RPS3A
  light to heavy ratio (L/H ratio) of acetylated peptide, log 2 scale: −0.60
Elongation factor G 2 mitochondrial precursor [265], gene GFM2, inhibitor:DMSO
  light to heavy ratio (L/H ratio) of acetylated peptide TFK(ac)GVVDVVMK (SEQ ID NO: 550): 0.00 log 2
Endoplasmin [410], HSP90B1, drug:DMSO
  light to heavy ratio (L/H ratio) of acetylated peptide KSDYIK(ac)LYVR (SEQ ID NO: 315): −0.70 log 2
Endoplasmin[ 142], HSP90B1, drug:DMSO
  light to heavy ratio (L/H ratio) of acetylated peptide EK(ac)NLLHVTDTGVGMTR (SEQ ID NO: 314): −0.84 log 2
Endoplasmin[ 356], HSP90B1, drug:DMSO
  light to heavy ratio (L/H ratio) of acetylated peptide EVEEDEYK(ac)AFYK (SEQ ID NO: 261): −0.89 log 2
Eukaryotic initiation factor 4A-I [238], gene EIF4A1, inhibitor:DMSO
  light to heavy ratio (L/H ratio) of acetylated peptide K(ac)EELTLEGIR (SEQ ID NO: 510): 0.00 log 2
Eukaryotic translation initiation factor 3 subunit A [68], gene EIF3A, inhibitor:DMSO
  light to heavy ratio (L/H ratio) of acetylated peptide SHLAK(ac)EGLYQYK (SEQ ID NO: 533): 0.00 log 2
FEK(ac)EQQQLNWK (SEQ ID NO: 179), Isoform Long of Integrin beta-7 [763], ITGB7
  light to heavy ratio (L/H ratio) of acetylated peptide, log 2 scale: −0.47
FFTVK(ac)LPVALDPGAK (SEQ ID NO: 209), Dolichyl-diphosphooligosaccharide--protein glycosyltransferase subunit 1 precursor [155], RPN1
  light to heavy ratio (L/H ratio) of acetylated peptide, log 2 scale: −0.39
FGIAAK(ac)YQLDPTASISAK (SEQ ID NO: 479), Isoform 2 of Voltage-dependent anion-selective channel protein 2 [224], VDAC2
  L/H ratio of acetylated peptide: 0.00 log 2
FLNAENAQK(ac)FK (SEQ ID NO: 200), Ran-specific GTPase-activating protein [150], RANBP1
  light to heavy ratio (L/H ratio) of acetylated peptide, log 2 scale: −0.68
FLTK(ac)GDNNAVDDR (SEQ ID NO: 218), Putative signal peptidase complex catalytic subunit SEC11B [101], SEC11B
  light to heavy ratio (L/H ratio) of acetylated peptide, log 2 scale: 0.82
FNQK(ac)GEVYK (SEQ ID NO: 149), Lipoamide acyltransferase component of branched-chain alpha-keto acid dehydrogenase complex mitochondrial [435], DBT
  light to heavy ratio (L/H ratio) of acetylated peptide, log 2 scale: 0.39
FWNK(ac)FLENK (SEQ ID NO: 187), NADH dehydrogenase [ubiquinone] 1 beta subcomplex subunit 6 [49], NDUFB6
  light to heavy ratio (L/H ratio) of acetylated peptide, log 2 scale: 0.54
Flap endonuclease 1 [252], gene FEN1, inhibitor:DMSO
  light to heavy ratio (L/H ratio) of acetylated peptide AVDLIQK(ac)HK (SEQ ID NO: 546): 0.00 log 2
GANAB [48], log 2 scale, drug vs DMSO
  L/H ratio of acetylated peptide TCEESSFCK(ac)R (SEQ ID NO: 36): −0.51
